According to paper PMC6259751, “Investigating Spectrum of Biological Activity of 4- and 5-Chloro-2-hydroxy-N-[2-(arylamino)-1-alkyl-2-oxoethyl]benzamides” (Molecules, 2011):
In brackets after ≈: the same amount, converted by molar mass. Where two headings read alike, the source gives them in different places.

Tests used:
[1] = tested on: Mycobacterium kansasii MK CNCTC My 235/80; assay: In vitro antimycobacterial evaluation; assay type: cell-based; conditions: IC90 value
Candida tropicalis 156 = assay: In vitro antifungal susceptibility testing (broth microdilution); assay type: cell-based; conditions: M27-A2 for yeasts, IC80 value
[2] = tested on: Mycobacterium tuberculosis MTB CNCTC My 331/88; assay: In vitro antimycobacterial evaluation; assay type: cell-based; conditions: IC90 value
[3] = tested on: Enterococcus sp. J 14365/08; assay: In vitro antibacterial susceptibility testing (broth microdilution); conditions: read-out: MIC EF
[4] = tested on: Staphylococcus epidermidis H 6966/08; assay: as above; conditions: read-out: MIC SE
[5] = tested on: Trichophyton mentagrophytes 445; assay: In vitro antifungal susceptibility testing (broth microdilution); assay type: cell-based; conditions: M38-A for moulds, IC50 value, read-out: MIC TM
[6] = tested on: Staphylococcus aureus CCM 4516/08; assay: In vitro antibacterial susceptibility testing (broth microdilution); conditions: read-out: MIC SA
[7] = tested on: methicilin resistant Staphylococcus aureus H 5996/08; assay: as above; conditions: MRSA, read-out: MIC MRSA
[8] = tested on: Mycobacterium avium MA CNCTC My 330/88; assay: In vitro antimycobacterial evaluation; assay type: cell-based; conditions: IC90 value
[9] = Lipophilicity determination by RP-HPLC (capacity factor k / log k); assay type: physicochemical; conditions: C18 column, MeOH 70% / H2O 30%, isocratic
Protocol: Hydrophobicities (log P/Clog P) of compounds 8 and 9 were calculated using two commercially available programs (ChemOffice Ultra 10.0 and ACD/LogP) and measured by means of RP-HPLC determination of capacity factors k with subsequent calculation of log k. The procedure was performed under isocratic conditions with methanol as an organic modifier in the mobile phase using an end-capped non-polar C18 stationary RP column. The results are shown in Table 1 and illustrated in Figure 1.
A Waters Alliance 2695 XE HPLC separation module and a Waters Photodiode Array Detector 2996 (Waters Corp., Milford, MA, USA) were used. A Symmetry® C18 5 μm, 4.6 × 250 mm, Part No. WAT054275 (Waters Corp., Milford, MA, USA) chromatographic column was used. The HPLC separation process was monitored by Empower™ 2 Chromatography Data Software, Waters 2009 (Waters Corp., Milford, MA, USA). A mixture of MeOH p.a. (70%) and H2O-HPLC – Mili-Q Grade (30%) was used as a mobile phase. The total flow of the column was 1.0 mL/min, injection volume, 30 μL, column temperature, 30 °C and sample temperature, 10 °C. The detection wavelength of 210 nm was chosen. The KI methanolic solution was used for the dead time (tD) determination. Retention times (tR) were measured in minutes. The capacity factors k were calculated using the Empower™ 2 Chromatography Data Software according to formula k = (tR - tD)/tD, where tR is the retention time of the solute, whereas tD denotes the dead time obtained using an unretained analyte. Log k, calculated from the capacity factor k, is used as the lipophilicity index converted to log P scale.

SMILES | MIC ([1]; 14h) | MIC ([1]; 21h) | MIC (Candida tropicalis 156; 24h) | MIC (Candida tropicalis 156; 48h) | MIC ([2]; 14h) | MIC ([2]; 21h) | MIC ([3]; SP.J14365/08, 24 h) | MIC ([3]; SP.J14365/08, 48 h) | MIC ([4]; H6966/08, 24 h) | MIC ([4]; H6966/08, 48 h) | MIC ([5]; 72h) | MIC ([5]; 120h) | MIC ([6]; CCM4516, 24 h) | MIC ([6]; CCM4516, 48 h) | MIC ([7]; 24 h) | MIC ([7]; 48 h) | MIC ([8]; 14h) | MIC ([8]; 21h) | log k [9]
CC(C)[C@H](NC(=O)c1cc(Cl)ccc1O)C(=O)Nc1ccc(Cl)c(Cl)c1 [8o] | 32 µM (≈ 13.3 µg/mL) | 62.5 µM (≈ 26 µg/mL) | > 125 µM | > 125 µM | 32 µM (≈ 13.3 µg/mL) | 32 µM (≈ 13.3 µg/mL) | > 500 µM | > 500 µM | > 500 µM | > 500 µM | > 125 µM | > 125 µM | > 500 µM | > 500 µM | > 500 µM | > 500 µM | 62.5 µM (≈ 26 µg/mL) | 125 µM (≈ 52 µg/mL) | 0.8623
CC(C)[C@@H](NC(=O)c1cc(Cl)ccc1O)C(=O)Nc1ccc(Cl)c(Cl)c1 [8p] | 32 µM (≈ 13.3 µg/mL) | 62.5 µM (≈ 26 µg/mL) | > 125 µM | > 125 µM | 16 µM (≈ 6.65 µg/mL) | 32 µM (≈ 13.3 µg/mL) | > 500 µM | > 500 µM | > 500 µM | > 500 µM | > 125 µM | > 125 µM | > 500 µM | > 500 µM | > 500 µM | > 500 µM | 62.5 µM (≈ 26 µg/mL) | 125 µM (≈ 52 µg/mL) | 0.8614
CC(C)[C@@H](NC(=O)c1cc(Cl)ccc1O)C(=O)Nc1ccc(Br)cc1 [8t] | 62.5 µM (≈ 26.6 µg/mL) | 125 µM (≈ 53.2 µg/mL) | > 125 µM | > 125 µM | 62.5 µM (≈ 26.6 µg/mL) | 62.5 µM (≈ 26.6 µg/mL) | > 125 µM | > 125 µM | > 125 µM | > 125 µM | > 125 µM | > 125 µM | > 125 µM | > 125 µM | > 125 µM | > 125 µM | 62.5 µM (≈ 26.6 µg/mL) | 62.5 µM (≈ 26.6 µg/mL) | 0.6646
O=C(N[C@H](Cc1ccccc1)C(=O)Nc1ccc(Br)cc1)c1cc(Cl)ccc1O [8v] | 32 µM (≈ 15.2 µg/mL) | 32 µM (≈ 15.2 µg/mL) | 500 µM (≈ 237 µg/mL) | > 500 µM | 32 µM (≈ 15.2 µg/mL) | 32 µM (≈ 15.2 µg/mL) | 62.5 µM (≈ 29.6 µg/mL) | 62.5 µM (≈ 29.6 µg/mL) | 62.5 µM (≈ 29.6 µg/mL) | 125 µM (≈ 59.2 µg/mL) | 500 µM (≈ 237 µg/mL) | > 500 µM | 3.9 µM (≈ 1.85 µg/mL) | 15.6 µM (≈ 7.4 µg/mL) | 7.81 µM (≈ 3.7 µg/mL) | 15.6 µM (≈ 7.4 µg/mL) | 250 µM (≈ 118 µg/mL) | 250 µM (≈ 118 µg/mL) | 0.7673
O=C(O)c1cn(C2CC2)c2cc(N3CCNCC3)c(F)cc2c1=O [CPF, ciprofloxacin, reference compound] | – | – | – | – | – | – | – | – | 250 µM (≈ 82.8 µg/mL) | 250 µM (≈ 82.8 µg/mL) | – | – | – | – | 500 µM (≈ 166 µg/mL) | 500 µM (≈ 166 µg/mL) | – | – | –
OC(Cn1cncn1)(Cn1cncn1)c1ccc(F)cc1F [FLU, fluconazole, reference compound] | – | – | 0.12 µM (≈ 0.0368 µg/mL) | > 125 µM | – | – | – | – | – | – | 1.95 µM (≈ 0.597 µg/mL) | 3.91 µM (≈ 1.2 µg/mL) | – | – | – | – | – | – | –
NNC(=O)c1ccncc1 [INH, isoniazid, reference compound] | > 250 µM | > 250 µM | – | – | 0.5 µM (≈ 0.0686 µg/mL) | 0.5 µM (≈ 0.0686 µg/mL) | – | – | – | – | – | – | – | – | – | – | > 250 µM | > 250 µM | –
CC1(C)S[C@@H]2[C@H](NC(=O)Cc3ccccc3)C(=O)N2[C@H]1C(=O)O [PEN, penicillin G, reference compound] | – | – | – | – | – | – | 7.81 µM (≈ 2.61 µg/mL) | 15.6 µM (≈ 5.22 µg/mL) | 31.6 µM (≈ 10.6 µg/mL) | 125 µM (≈ 41.8 µg/mL) | – | – | 0.24 µM (≈ 0.0803 µg/mL) | 0.24 µM (≈ 0.0803 µg/mL) | 125 µM (≈ 41.8 µg/mL) | 125 µM (≈ 41.8 µg/mL) | – | – | –
